In article PMC11881906, “Development of xanthone derivatives as effective broad-spectrum antimicrobials: Disrupting cell wall and inhibiting DNA synthesis” (Science Advances, 2025):
Values after ≈ are worked out from the molar mass of the structure shown. Read-outs that look alike come from different tables or passages of the source.

Key:
rabbit erythrocytes = assay: Hemolysis assay; assay type: cell-based; conditions: concentration causing 50% hemolysis of red blood cells; 1 hour, 37°C
How it was run: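 Washed rabbit erythrocytes, 8% (v/v) in PBS pH 7.4, incubated 1 h at 37 °C with twofold-diluted compounds (DMSO <0.5%). Haemoglobin release read at 576 nm in supernatant; % hemolysis normalised between PBS (0%) and 0.2% Triton X-100 (100%), three repeats in duplicate.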

Gram-negative bacteria = assay: MIC, Gram-negative strains; assay type: cell-based; conditions: read-out: MICs against Gram-negative bacteria
Description: MIC was determined using the broth microdilution method in accordance with Clinical and Laboratory Standards Institute guidelines. All compounds were dissolved in dimethyl sulfoxide (DMSO; final DMSO concentration of less than 0.5%) and sterile double-distilled water and then diluted with Mueller-Hinton broth (MHB). Each compound’s stock solution was serially twofold diluted, resulting in concentrations ranging from 0.39 to 100 μg/ml, and thereafter added to sterile 96-well plates. All bacterial cell suspensions were adjusted in MHB to attain a starting inoculum of 1 × 10^6 cells/ml. A total of 100 μl volume of the bacterial suspension was then added to each well. Following a 24-hour incubation at 37°C, the optical density at 600 nm (OD600) was confirmed by measuring absorbance at 600 nm with a BioTek microplate reader. […] All measurements were repeated three times with duplicates each time.

E. coli ATCC 25922 = assay: SYTOX Green uptake assay; assay type: cell-based, Escherichia coli; conditions: up to 8× MIC
Description: The SYTOX Green uptake was measured to explore the inner membrane permeability. The overnight bacteria culture was centrifuged and resuspended in sterile PBS to obtain an OD600 of 0.2. SYTOX Green dye was added to a final concentration of 0.3 μM and incubated for 20 min without being exposed to the light. Fluorescence was measured at excitation and emission wavelengths of 504 and 523 nm, respectively. […] The changes in fluorescence intensity were continuously monitored for 1 hour. All measurements were repeated three times with duplicates each time.

P. aeruginosa ATCC 9027 = assay: Time-kill kinetic assay; assay type: cell-based, Pseudomonas aeruginosa; conditions: 5× MIC
Description: The bacterial cultures were standardized to obtain an initial density that ranged from 10^5 to 10^6 cells/ml. The cultures were incubated in a shaking bath at 37°C. Viable counts were determined at 0-, 0.5-, 1.0-, 2.0-, 4.0-, 8.0-, and 24-hour intervals by spotting 10-μl aliquots of serially 10-fold diluted cultures onto Mueller-Hinton agar (MHA) plates. After incubation at 37°C for 24 hours, the bactericidal activity, defined as the ability to reduce the initial inoculum by 3 log10 CFU/ml, was examined for each tested concentration over time. All measurements were repeated three times with duplicates each time.

CCK-8 cytotoxicity assay = assay type: cell-based
Description: Cytotoxicity of the compound tested was assessed by CCK-8 assays as previously described ([71]). […] Following a 24-hour incubation, 10 μl of CCK-8 reagent was added to each well and incubated for 1 hour. The absorbance at 450 nm was measured by a microplate reader. All measurements were repeated three times with duplicates each time.

[1] = human, HepG2 cells, read-out: Viable cells (%) HepG2 cells
[2] = mouse, NCTC clone 929 fibroblast cells, read-out: %Viable cells NCTC clone 929 cells

SMILES: CC(C)=CCOc1cc(OCCCNC(=N)N)cc2oc3cc(OCCCNC(=N)N)ccc3c(=O)c12 [XT17]
- HC50 (rabbit erythrocytes): >200 µg/mL
- MIC (Gram-negative bacteria): 3.12 µg/mL (≈ 6.12 µM)
- SYTOX Green fluorescence intensity (cytoplasmic membrane permeabilization) (E. coli ATCC 25922): did not show a notable increase
- log bacterial load reduction (P. aeruginosa ATCC 9027; 1 hour): 3.24 log
- bacterial regrowth (P. aeruginosa ATCC 9027; at 24 hours): no bacterial regrowth was observed
- viability at 24 h, 3.125 μg/ml (CCK-8 cytotoxicity assay; [1]): 105%
- viability at 24 h, 6.25 μg/ml (CCK-8 cytotoxicity assay; [1]): 110%
- viability at 24 h, 12.5 μg/ml (CCK-8 cytotoxicity assay; [1]): 104%
- viability at 24 h, 25 μg/ml (CCK-8 cytotoxicity assay; [1]): 83.9%
- viability at 24 h, 50 μg/ml (CCK-8 cytotoxicity assay; [1]): 62.2 ± 8.01%
- viability at 24 h, 100 μg/ml (CCK-8 cytotoxicity assay; [1]): 40.6%
- viability at 24 h, 3.125 μg/ml (CCK-8 cytotoxicity assay; [2]): 90%
- viability at 24 h, 6.25 μg/ml (CCK-8 cytotoxicity assay; [2]): 87.9%
- viability at 24 h, 12.5 μg/ml (CCK-8 cytotoxicity assay; [2]): 87.7%
- viability at 24 h, 25 μg/ml (CCK-8 cytotoxicity assay; [2]): 78.9 ± 3.46%
- viability at 24 h, 50 μg/ml (CCK-8 cytotoxicity assay; [2]): 51.6 ± 2.46%
- viability at 24 h, 100 μg/ml (CCK-8 cytotoxicity assay; [2]): 8.16%
